Source: PubChem BioAssay AID1626 (SRMLSC, 2009)

System: M. tuberculosis H37Rv growth inhibition
Assay: M. tuberculosis H37Rv growth inhibitors, H37Rv strain (AID 1626)
Conditions: for IC90: measured here: IC90 against H37Rv; for CC50: measured here: Vero cell cytotoxicity

Q: `CC1CCc2nc(NC(=O)CN3CCN(c4ccccc4)CC3)sc2C1` (centres undefined) was tested. Which IC50 did it give?
A: 24.6 µM

Q: And the IC90?
A: > 100 µM

Q: With `CCc1ccc(/C=c2\s/c(=C\C(=O)C(C)(C)C)[nH]c2=O)cc1` as the molecule, how does the IC50 read?
A: 2.55 µM

Q: What about the IC90 of the same molecule?
A: 3.56 µM

Q: And the CC50?
A: > 40 µM

Q: For `CCOC(=O)c1ccc(NC(=O)c2cc3c(s2)CCC3)cc1`, which IC50 is on record?
A: 4.74 µM

Q: What about the IC90 of the same molecule?
A: > 100 µM

Q: Which results are given for `CC1CC1C(=O)Nc1nc(-c2ccccn2)cs1` (centres undefined)?
A: IC50: 2.13 µM; IC90: 4.75 µM; CC50: 25.9 µM

Q: How did the IC50 turn out when `O=C(CN1CCN(CC(=O)Nc2ccc(OCc3ccccc3)cc2)CC1)Nc1ccc(F)cc1` was run?
A: 34.5 µM

Q: And the IC90?
A: > 100 µM

Q: For `COc1ccc(-c2noc(CCC(=O)Nc3ccc4c(c3)OCCO4)n2)cc1`, which IC50 is on record?
A: 30.7 µM

Q: What about the IC90 of the same molecule?
A: > 100 µM

Q: How did the IC50 turn out when `CCc1nnc(NC(=O)c2ccc3ccccc3n2)s1` was run?
A: 12.1 µM

Q: And the IC90?
A: > 100 µM

Q: What about the CC50 of the same molecule?
A: > 40 µM

Q: With `O=C1CSc2ccc(C(=O)Nc3cccc(S(=O)(=O)Nc4ccc(Br)cc4)c3)cc2N1` as the molecule, how does the IC50 read?
A: 7.03 µM

Q: And the IC90?
A: 11.9 µM

Q: What about the CC50 of the same molecule?
A: 16.5 µM

Q: `CSc1ccc(/C=C/C(=O)c2ccc(NC(C)=O)cc2)cc1` was tested. Which IC50 did it give?
A: 28.4 µM

Q: And the IC90?
A: > 100 µM

Q: `CCCCNC(=O)COC(=O)c1cc(F)c(F)cc1Cl` was tested. Which IC50 did it give?
A: 6.16 µM

Q: What about the IC90 of the same molecule?
A: > 100 µM

Q: `COc1cc(OC)c2c(-c3ccccc3)cc(=O)oc2c1C(CCN1CCCCC1)c1ccc(N(C)C)cc1` (centres undefined) was tested. Which IC50 did it give?
A: 8.78 µM

Q: What about the IC90 of the same molecule?
A: 12.1 µM

Q: What about the CC50 of the same molecule?
A: 20.4 µM

Q: How did the IC50 turn out when `CCCOC(=O)c1ccc(NC(=O)C2C3C=CC(O3)C2C(=O)O)cc1` (centres undefined) was run?
A: 35.2 µM

Q: What about the IC90 of the same molecule?
A: > 100 µM

Q: How did the IC50 turn out when `Oc1c(CN2CCc3ccccc3C2)cc(Cl)c2cccnc12` was run?
A: 7.65 µM

Q: What about the IC90 of the same molecule?
A: 9.8 µM

Q: And the CC50?
A: 4.88 µM

Q: How did the IC50 turn out when `Oc1ccccc1-c1nc(/C=C/c2ccccc2)nn1-c1ccccc1` was run?
A: 16.3 µM

Q: And the IC90?
A: > 100 µM

Q: With `COc1ccc(NC(C#N)c2ccc(OC)cc2)cc1` (centres undefined) as the molecule, how does the IC90 read?
A: > 100 µM

Q: For `COc1ccc(N)c2c1C(=O)c1ccccc1C2=O`, which IC50 is on record?
A: 17.5 µM

Q: And the IC90?
A: > 100 µM

Q: And the CC50?
A: > 40 µM

Q: With `CC1(C)C2CCC1(C)C(NC(=O)/C=C/c1ccccc1)C2` (centres undefined) as the molecule, how does the IC50 read?
A: < 0.195 µM

Q: And the IC90?
A: 18.1 µM

Q: What about the CC50 of the same molecule?
A: > 40 µM

Q: Which IC90 does the source give for `C=CCn1c(COc2ccc3c(c2)CCCC3)nnc1SCC(=O)Nc1cccc(SC)c1` here?
A: > 100 µM

Q: For `O=C(COc1ccc(Cl)cc1)Nc1nnc(-c2ccc3c(c2)CCCC3)o1`, which IC50 is on record?
A: 54.3 µM

Q: What about the IC90 of the same molecule?
A: > 100 µM

Q: And the CC50?
A: > 40 µM

Q: `OC(CNCCc1ccc(C(F)(F)F)cc1)COc1cccc2ccccc12` (centres undefined) was tested. Which IC50 did it give?
A: 5.71 µM

Q: And the IC90?
A: 6.42 µM

Q: And the CC50?
A: 13.7 µM

Q: Which results are given for `Cn1c(-c2c(N)n(CCc3ccccc3)c3nc4ccccc4nc23)nc2ccccc21`?
A: IC50: 1.83 µM; IC90: 28.4 µM; CC50: 35.1 µM

Q: Which IC50 does the source give for `CCCSc1ccc(C(=O)Nc2ccc(Cl)cc2)cn1` here?
A: 27.9 µM

Q: And the IC90?
A: > 100 µM

Q: With `CC(C)[C@H](CO)N(Cc1cccc(F)c1)c1nc(Nc2cccc(Cl)c2)c2ncn(C(C)C)c2n1` as the molecule, how does the IC50 read?
A: 7.31 µM

Q: And the IC90?
A: 14.1 µM

Q: And the CC50?
A: > 40 µM

Q: Which IC50 does the source give for `Cc1cc(C)n(-c2nc(SCCN(C)C)c3c4c(sc3n2)CCCC4)n1` here?
A: 4.2 µM

Q: And the IC90?
A: 6.19 µM

Q: What about the CC50 of the same molecule?
A: 11.6 µM

Q: How did the IC50 turn out when `CCOc1ccc2nc(/N=C/c3nc(-c4ccccc4)oc3O)sc2c1` was run?
A: 6.82 µM

Q: What about the IC90 of the same molecule?
A: > 100 µM

Q: With `OCC#CCSc1nnc(-c2ccc(Br)cc2)o1` as the molecule, how does the IC50 read?
A: 0.543 µM

Q: What about the IC90 of the same molecule?
A: 17.9 µM

Q: With `CCn1c([N+](=O)[O-])nc2c1c(=O)[nH]c(=O)n2C` as the molecule, how does the IC50 read?
A: 0.823 µM

Q: What about the IC90 of the same molecule?
A: 1.64 µM

Q: And the CC50?
A: 11.6 µM

Q: Which results are given for `CN(C)CCNC(=O)/C(=C/c1ccc(-c2ccc(Cl)cc2Cl)o1)NC(=O)c1ccccc1`?
A: IC50: 10.5 µM; IC90: 11.6 µM; CC50: 10.2 µM

Q: `COc1cc2c(cc1NC(=O)CSc1nc3ccccc3[nH]1)oc1ccccc12` was tested. Which IC50 did it give?
A: 10.4 µM

Q: And the IC90?
A: > 100 µM

Q: And the CC50?
A: > 40 µM

Q: Which IC50 does the source give for `O=C(COC(=O)c1ccc(Cl)s1)c1ccc[nH]1` here?
A: 8.14 µM

Q: What about the IC90 of the same molecule?
A: 16.7 µM

Q: `Cc1ccc(CNCc2cc3c(C(C)(C)C)nn(-c4ccccc4)c3[nH]c2=O)cc1` was tested. Which IC50 did it give?
A: 8.33 µM

Q: And the IC90?
A: 11 µM

Q: What about the CC50 of the same molecule?
A: > 40 µM

Q: For `CCn1cnc2sc(C(=O)Oc3cccc(C)c3)c(C)c2c1=O`, which IC50 is on record?
A: < 0.195 µM

Q: What about the IC90 of the same molecule?
A: 2.36 µM
